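48-hour exposure; five concentrations; linearly interpolated endpoints. At the GI50, growth is halved.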 Calls of active or inactive are those of the source. Rule as the data show it: active = GI50 up to about 1.1 µM and inactive = higher.
Experiments:
Test in all cases: inhibition of tumour cell growth, NCI panel, 48 h
ACHN = tested on: ACHN
SF-268 = tested on: SF-268
Malme-3M = tested on: Malme-3M
RXF 393 = tested on: RXF 393
UO-31 = tested on: UO-31
KM12 = tested on: KM12
DMS-273 = tested on: DMS-273
SNB-19 = tested on: SNB-19
MOLT-4 = tested on: MOLT-4
DLD-1 = tested on: DLD-1
A498 = tested on: A498
K562 = tested on: K562
M14 = tested on: M14
OVCAR-4 = tested on: OVCAR-4
DMS-114 = tested on: DMS-114
CAKI-1 = tested on: CAKI-1
NCI-H522 = tested on: NCI-H522
SNB-75 = tested on: SNB-75
UACC-257 = tested on: UACC-257
786-0 = tested on: 786-0
M19-MEL = tested on: M19-MEL
HCC 2998 = tested on: HCC 2998
HL-60 = tested on: HL-60
OVCAR-8 = tested on: OVCAR-8
SK-MEL-2 = tested on: SK-MEL-2
HOP-18 = tested on: HOP-18
HOP-62 = tested on: HOP-62
SF-295 = tested on: SF-295
SK-MEL-28 = tested on: SK-MEL-28
OVCAR-5 = tested on: OVCAR-5
HT-29 = tested on: HT-29
COLO 205 = tested on: COLO 205
CCRF-CEM = tested on: CCRF-CEM
EKVX = tested on: EKVX
KM-20L2 = tested on: KM-20L2
NCI-H460 = tested on: NCI-H460
TK-10 = tested on: TK-10
NCI-H23 = tested on: NCI-H23
SN12C = tested on: SN12C
SK-OV-3 = tested on: SK-OV-3
RXF 631 = tested on: RXF 631
UACC-62 = tested on: UACC-62
SK-MEL-5 = tested on: SK-MEL-5
HOP-92 = tested on: HOP-92
SF-539 = tested on: SF-539
IGROV-1 = tested on: IGROV-1
NCI-H226 = tested on: NCI-H226
LXFL 529 = tested on: LXFL 529
LOX IMVI = tested on: LOX IMVI
OVCAR-3 = tested on: OVCAR-3
XF498 = tested on: XF498
SW-620 = tested on: SW-620
SNB-78 = tested on: SNB-78
A549 = tested on: A549
HCT-116 = tested on: HCT-116
HCT-15 = tested on: HCT-15
SR = tested on: SR
U-251 = tested on: U-251
RPMI-8226 = tested on: RPMI-8226
MDA-MB-231 = tested on: MDA-MB-231
DU-145 = tested on: DU-145
MCF7 = tested on: MCF7
BT-549 = tested on: BT-549
NCI/ADR-RES = tested on: NCI/ADR-RES
MDA-MB-435 = tested on: MDA-MB-435
Hs-578T = tested on: Hs-578T
T47D = tested on: T47D
MDA-N = tested on: MDA-N
PC-3 = tested on: PC-3

With `COC(=O)CC1CC2(C(=O)OC)c3[nH]c4ccccc4c3CCN2C1=O` (configuration not stated) the GI50 (ACHN) was > 100 µM (inactive), the GI50 (SF-268) was > 100 µM (inactive) and the GI50 (Malme-3M) was > 100 µM (inactive). The GI50 (RXF 393) was > 100 µM (inactive), the GI50 (UO-31) was > 100 µM (inactive) and the GI50 (KM12) was > 100 µM (inactive). The GI50 (DMS-273) was > 100 µM (inactive), the GI50 (SNB-19) was > 100 µM (inactive) and the GI50 (MOLT-4) was > 100 µM (inactive). For the same molecule, the GI50 (DLD-1) was > 100 µM (inactive), the GI50 (A498) was > 100 µM (inactive) and the GI50 (K562) was > 100 µM (inactive). The GI50 (M14) was > 100 µM (inactive), the GI50 (OVCAR-4) was > 100 µM (inactive) and the GI50 (DMS-114) was > 100 µM (inactive). For the same molecule, the GI50 (CAKI-1) was > 100 µM (inactive), the GI50 (NCI-H522) was > 100 µM (inactive) and the GI50 (SNB-75) was > 100 µM (inactive). For the same molecule, the GI50 (UACC-257) was > 100 µM (inactive), the GI50 (786-0) was > 100 µM (inactive) and the GI50 (M19-MEL) was > 100 µM (inactive). For the same molecule, the GI50 (HCC 2998) was > 100 µM (inactive), the GI50 (HL-60) was > 100 µM (inactive) and the GI50 (OVCAR-8) was > 100 µM (inactive). For the same molecule, the GI50 (SK-MEL-2) was > 100 µM (inactive), the GI50 (HOP-18) was > 100 µM (inactive) and the GI50 (HOP-62) was > 100 µM (inactive). For the same molecule, the GI50 (SF-295) was > 100 µM (inactive), the GI50 (SK-MEL-28) was > 100 µM (inactive) and the GI50 (OVCAR-5) was > 100 µM (inactive). The GI50 (HT-29) was > 100 µM (inactive), the GI50 (COLO 205) was > 100 µM (inactive) and the GI50 (CCRF-CEM) was > 100 µM (inactive). For the same molecule, the GI50 (EKVX) was > 100 µM (inactive), the GI50 (KM-20L2) was > 100 µM (inactive) and the GI50 (NCI-H460) was > 100 µM (inactive). The GI50 (TK-10) was > 100 µM (inactive), the GI50 (NCI-H23) was > 100 µM (inactive) and the GI50 (SN12C) was > 100 µM (inactive). For the same molecule, the GI50 (SK-OV-3) was > 100 µM (inactive), the GI50 (RXF 631) was 17.5 µM (inactive) and the GI50 (UACC-62) was > 100 µM (inactive). The GI50 (SK-MEL-5) was > 100 µM (inactive), the GI50 (HOP-92) was > 100 µM (inactive) and the GI50 (SF-539) was > 100 µM (inactive). For the same molecule, the GI50 (IGROV-1) was > 100 µM (inactive), the GI50 (NCI-H226) was > 100 µM (inactive) and the GI50 (LXFL 529) was > 100 µM (inactive). For the same molecule, the GI50 (LOX IMVI) was > 100 µM (inactive), the GI50 (OVCAR-3) was > 100 µM (inactive) and the GI50 (XF498) was > 100 µM (inactive). For the same molecule, the GI50 (SW-620) was > 100 µM (inactive), the GI50 (SNB-78) was > 100 µM (inactive) and the GI50 (A549) was > 100 µM (inactive). For the same molecule, the GI50 (HCT-116) was > 100 µM (inactive), the GI50 (HCT-15) was over 100 µM and the GI50 (SR) was > 100 µM (inactive). For the same molecule, the GI50 (U-251) was > 100 µM (inactive).
For `CCCCCCCCCCCCCCCCCCN(C)CC(COP(=O)([O-])OCC[N+](C)(C)C)OC` (configuration not stated), the GI50 (ACHN) was 22.6 µM (inactive), the GI50 (SF-268) was 8.17 µM (inactive) and the GI50 (RPMI-8226) was 6.03 µM (inactive). The GI50 (Malme-3M) was 26.7 µM (inactive), the GI50 (RXF 393) was 3.4 µM (inactive) and the GI50 (MDA-MB-231) was 57.1 µM (inactive). The GI50 (UO-31) was 29.5 µM (inactive), the GI50 (KM12) was 3.52 µM (inactive) and the GI50 (DU-145) was 31.5 µM (inactive). The GI50 (DMS-273) was 1.95 µM (inactive), the GI50 (SNB-19) was 7.29 µM (inactive) and the GI50 (MOLT-4) was 3.94 µM (inactive). For the same molecule, the GI50 (DLD-1) was 5.14 µM (inactive), the GI50 (A498) was 13.6 µM (inactive) and the GI50 (K562) was 18.8 µM (inactive). For the same molecule, the GI50 (M14) was 9.84 µM (inactive), the GI50 (OVCAR-4) was 8.09 µM (inactive) and the GI50 (DMS-114) was 6.76 µM (inactive). For the same molecule, the GI50 (CAKI-1) was 5.27 µM (inactive), the GI50 (NCI-H522) was 9.51 µM (inactive) and the GI50 (SNB-75) was 5.93 µM (inactive). The GI50 (MCF7) was 29.4 µM (inactive), the GI50 (UACC-257) was 35.3 µM (inactive) and the GI50 (786-0) was 6.89 µM (inactive). The GI50 (M19-MEL) was 4.21 µM (inactive), the GI50 (HCC 2998) was 6.75 µM (inactive) and the GI50 (HL-60) was 3.66 µM (inactive). The GI50 (BT-549) was 38.5 µM (inactive), the GI50 (OVCAR-8) was 26.6 µM (inactive) and the GI50 (SK-MEL-2) was 38.5 µM (inactive). For the same molecule, the GI50 (HOP-18) was 17.3 µM (inactive), the GI50 (NCI/ADR-RES) was > 64 µM (inactive) and the GI50 (HOP-62) was 9.38 µM (inactive). The GI50 (SF-295) was 7.83 µM (inactive), the GI50 (MDA-MB-435) was > 46.9 µM (inactive) and the GI50 (SK-MEL-28) was 38.3 µM (inactive). For the same molecule, the GI50 (OVCAR-5) was 4.51 µM (inactive), the GI50 (HT-29) was 4.94 µM (inactive) and the GI50 (COLO 205) was 2.91 µM (inactive). For the same molecule, the GI50 (CCRF-CEM) was 5.4 µM (inactive), the GI50 (EKVX) was 26.9 µM (inactive) and the GI50 (KM-20L2) was 1.91 µM (inactive). The GI50 (NCI-H460) was 4.25 µM (inactive), the GI50 (TK-10) was 3.32 µM (inactive) and the GI50 (NCI-H23) was 20.2 µM (inactive). For the same molecule, the GI50 (SN12C) was 27.4 µM (inactive), the GI50 (SK-OV-3) was 14.1 µM (inactive) and the GI50 (RXF 631) was 16.2 µM (inactive). The GI50 (UACC-62) was 11.2 µM (inactive), the GI50 (SK-MEL-5) was 27.9 µM (inactive) and the GI50 (HOP-92) was 9.77 µM (inactive). For the same molecule, the GI50 (SF-539) was 16.7 µM (inactive), the GI50 (IGROV-1) was 3.1 µM (inactive) and the GI50 (NCI-H226) was 16.5 µM (inactive). For the same molecule, the GI50 (LXFL 529) was 8.67 µM (inactive), the GI50 (LOX IMVI) was 10 µM (inactive) and the GI50 (Hs-578T) was > 46.1 µM (inactive). The GI50 (OVCAR-3) was 28.6 µM (inactive), the GI50 (XF498) was 14 µM (inactive) and the GI50 (SW-620) was 17.5 µM (inactive). For the same molecule, the GI50 (SNB-78) was 6.32 µM (inactive), the GI50 (A549) was 22.8 µM (inactive) and the GI50 (HCT-116) was 15.5 µM (inactive). For the same molecule, the GI50 (T47D) was > 80.7 µM (inactive), the GI50 (MDA-N) was > 100 µM (inactive) and the GI50 (PC-3) was 18.1 µM (inactive). For the same molecule, the GI50 (HCT-15) was 7.67 µM, the GI50 (SR) was 2.44 µM (inactive) and the GI50 (U-251) was 4.9 µM (inactive).
